ChEMBL document CHEMBL4507327 (2021)

Experiments:
[1] = target: Neuropeptide Y receptor type 1 (Homo sapiens) (UniProt P25929); assay: Inhibition of Neuropeptide Y Y1 at 10 µM in the Eurofins-Panlabs radioligand binding assay (Eurofins_assay_257010); details: Compound concentration 10.0 uM
[2] = target: D(1B) dopamine receptor (Homo sapiens) (UniProt P21918); assay: Dopamine D5 Eurofins-Panlabs radioligand binding assay; details: Compound concentration 10.0 uM
[3] = target: Cannabinoid receptor 1 (Homo sapiens) (UniProt P21554); assay: Inhibition of Cannabinoid CB1 at compound concentration of 10.0 uM in the Eurofins-Panlabs radioligand binding assay (Eurofins_assay_217050); parameters: ligand concentration 2 nM; details: Compound concentration 10.0 uM
[4] = target: Beta-adrenergic receptor kinase 1 (Homo sapiens, UniProt P25098); assay: BARK1 [GRK2(ADR1LGG5)] Takeda global kinase panel
[5] = target: Bone morphogenetic protein receptor type-2 (Homo sapiens, UniProt Q13873); assay: BMPR2(BMR2LGN1) Takeda global kinase panel
[6] = target: Calcium/calmodulin-dependent protein kinase type IV (Homo sapiens, UniProt Q16566); assay: CaMK4(CAM4LGY1) Takeda global kinase panel
[7] = target: Cyclin-dependent kinase 4 (Homo sapiens, UniProt P11802); assay: CDK4(CDK4CGS1) Takeda global kinase panel
[8] = target: Dual specificity protein kinase CLK4 (Homo sapiens, UniProt Q9HAZ1); assay: CLK4(CLK4IGF1) Takeda global kinase panel
[9] = target: Casein kinase I isoform delta (Homo sapiens, UniProt P48730); assay: CK1delta(CS1DLGI1) Takeda global kinase panel
[10] = target: Serine/threonine-protein kinase DCLK3 (Homo sapiens, UniProt Q9C098); assay: DCAMKL3(DCL3LGP1) Takeda global kinase panel
Ephrin type-A receptor 1 = Ephrin type-A receptor 1 (Homo sapiens, UniProt P21709); assay: EphA1(EPA1LGY1) Takeda global kinase panel
Ephrin type-B receptor 4 = Ephrin type-B receptor 4 (Homo sapiens, UniProt P54760); assay: EphB4(EPB4LGY1) Takeda global kinase panel
[11] = target: Vascular endothelial growth factor receptor 1 (Homo sapiens, UniProt P17948); assay: FLT1(FLT1LGC5) Takeda global kinase panel
[12] = target: Vascular endothelial growth factor receptor 3 (Homo sapiens, UniProt P35916); assay: FLT4(FLT4LGY1) Takeda global kinase panel
[13] = target: Cyclin-G-associated kinase (Homo sapiens, UniProt O14976); assay: GAK(GAK1PGF1) Takeda global kinase panel
[14] = target: G protein-coupled receptor kinase 6 (Homo sapiens, UniProt P43250); assay: GRK6(GRK6LGP1) Takeda global kinase panel
[15] = target: Dual specificity mitogen-activated protein kinase kinase 1 (Homo sapiens, UniProt Q02750); assay: MEK1 [MAP2K1(M2K1LGF1)] Takeda global kinase panel
[16] = target: Mitogen-activated protein kinase 1 (Homo sapiens, UniProt P28482); assay: ERK2(MAP1LGY1) Takeda global kinase panel
[17] = target: Mitogen-activated protein kinase 12 (Homo sapiens, UniProt P53778); assay: p38gamma(MP12LGP1) Takeda global kinase panel
[18] = target: Mitogen-activated protein kinase 9 (Homo sapiens, UniProt P45984); assay: JNK2(MAP9LGF1) Takeda global kinase panel
[19] = target: Microtubule-associated serine/threonine-protein kinase 3 (Homo sapiens, UniProt O60307); assay: MAST3(MAS3LGE1) Takeda global kinase panel
[20] = target: Serine/threonine-protein kinase Nek3 (Homo sapiens, UniProt P51956); assay: Nek3(NEK3LGRI) Takeda global kinase panel
[21] = target: Serine/threonine-protein kinase PAK 4 (Homo sapiens, UniProt O96013); assay: PAK4(PAK4CGY1) Takeda global kinase panel
[22] = target: Platelet-derived growth factor receptor beta (Homo sapiens, UniProt P09619); assay: PDGFRbeta(PDGBIHC1) Takeda global kinase panel
[23] = target: Protein kinase C alpha type (Homo sapiens, UniProt P17252); assay: PKCalpha(PRKALGY1) Takeda global kinase panel
[24] = target: cGMP-dependent protein kinase 2 (Homo sapiens, UniProt Q13237); assay: PKG2(PRG2LHY1) Takeda global kinase panel
[25] = target: Ribosomal protein S6 kinase alpha-2 (Homo sapiens, UniProt Q15349); assay: RSK3(R6A1CGE1) Takeda global kinase panel
[26] = target: STE20-like serine/threonine-protein kinase (Homo sapiens, UniProt Q9H2G2); assay: SLK(SLK1LGRJ) Takeda global kinase panel
[27] = target: Tyrosine-protein kinase Srms (Homo sapiens, UniProt Q9H3Y6); assay: Srm(SRMSLGY1) Takeda global kinase panel
[28] = target: Serine/threonine-protein kinase 32B (Homo sapiens, UniProt Q9NY57); assay: YANK2(S32BLGY2) Takeda global kinase panel
[29] = target: Serine/threonine-protein kinase 4 (Homo sapiens, UniProt Q13043); assay: MST1(STK4LGF1) Takeda global kinase panel
[30] = target: Tyrosine-protein kinase SYK (Homo sapiens, UniProt P43405); assay: Syk(SYK1LHY1) Takeda global kinase panel
[31] = target: Serine/threonine-protein kinase TAO3 (Homo sapiens, UniProt Q9H2K8); assay: TAO3(TAO3LGY1) Takeda global kinase panel
TGF-beta receptor type-1 = TGF-beta receptor type-1 (Homo sapiens, UniProt P36897); assay: TGFbetaR1(TGF1LGF1) Takeda global kinase panel
[32] = target: Non-receptor tyrosine-protein kinase TNK1 (Homo sapiens, UniProt Q13470); assay: Tnk1(TNK1LGY1) Takeda global kinase panel
[33] = target: Wee1-like protein kinase 2 (Homo sapiens, UniProt P0C1S8); assay: Wee1B(WE1BLGF1) Takeda global kinase panel
[34] = target: GABA-A receptor; anion channel (Rattus norvegicus) (UniProt O09028+P15431+P18506+P18508+P19969+P20236+P23574+P23576+P28471+P28473+P30191+P62813+P63079+P63138+Q91ZM7+Q9ES14); details: Compound concentration 10.0 uM
[35] = target: T1, 5-hydroxytryptamine receptor 1A (Homo sapiens) (UniProt P08908); details: Compound concentration 10.0 uM
T1 sequence (whole entry): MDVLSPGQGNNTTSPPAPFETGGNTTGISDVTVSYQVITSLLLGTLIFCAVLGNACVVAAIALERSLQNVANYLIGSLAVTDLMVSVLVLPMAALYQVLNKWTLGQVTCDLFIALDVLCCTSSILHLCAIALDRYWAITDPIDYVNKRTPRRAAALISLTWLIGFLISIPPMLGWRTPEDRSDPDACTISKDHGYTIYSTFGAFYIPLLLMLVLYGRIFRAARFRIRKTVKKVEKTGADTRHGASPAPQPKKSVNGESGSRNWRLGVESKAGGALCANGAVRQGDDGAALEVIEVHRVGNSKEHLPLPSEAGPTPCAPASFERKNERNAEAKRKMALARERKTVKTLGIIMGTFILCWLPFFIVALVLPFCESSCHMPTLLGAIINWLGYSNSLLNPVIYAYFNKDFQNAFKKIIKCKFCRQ

Serine/threonine-protein kinase PAK 4, sequence (O96013 whole entry): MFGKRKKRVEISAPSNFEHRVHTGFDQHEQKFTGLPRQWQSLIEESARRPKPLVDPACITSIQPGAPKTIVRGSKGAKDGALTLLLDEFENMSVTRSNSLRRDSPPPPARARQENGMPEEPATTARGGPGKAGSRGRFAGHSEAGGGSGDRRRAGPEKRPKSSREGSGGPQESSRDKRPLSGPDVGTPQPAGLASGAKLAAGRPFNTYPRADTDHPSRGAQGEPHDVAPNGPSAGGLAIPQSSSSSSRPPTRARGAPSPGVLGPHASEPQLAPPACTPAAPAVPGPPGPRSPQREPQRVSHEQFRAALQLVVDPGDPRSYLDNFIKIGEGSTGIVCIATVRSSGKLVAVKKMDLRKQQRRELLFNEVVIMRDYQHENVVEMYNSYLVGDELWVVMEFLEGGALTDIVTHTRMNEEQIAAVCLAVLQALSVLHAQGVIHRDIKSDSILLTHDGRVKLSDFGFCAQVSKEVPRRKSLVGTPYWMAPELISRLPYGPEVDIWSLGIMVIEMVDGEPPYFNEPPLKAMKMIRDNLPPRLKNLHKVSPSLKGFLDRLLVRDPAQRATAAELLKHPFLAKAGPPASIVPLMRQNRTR
Dual specificity protein kinase CLK4, sequence (Q9HAZ1 whole entry, canonical isoform): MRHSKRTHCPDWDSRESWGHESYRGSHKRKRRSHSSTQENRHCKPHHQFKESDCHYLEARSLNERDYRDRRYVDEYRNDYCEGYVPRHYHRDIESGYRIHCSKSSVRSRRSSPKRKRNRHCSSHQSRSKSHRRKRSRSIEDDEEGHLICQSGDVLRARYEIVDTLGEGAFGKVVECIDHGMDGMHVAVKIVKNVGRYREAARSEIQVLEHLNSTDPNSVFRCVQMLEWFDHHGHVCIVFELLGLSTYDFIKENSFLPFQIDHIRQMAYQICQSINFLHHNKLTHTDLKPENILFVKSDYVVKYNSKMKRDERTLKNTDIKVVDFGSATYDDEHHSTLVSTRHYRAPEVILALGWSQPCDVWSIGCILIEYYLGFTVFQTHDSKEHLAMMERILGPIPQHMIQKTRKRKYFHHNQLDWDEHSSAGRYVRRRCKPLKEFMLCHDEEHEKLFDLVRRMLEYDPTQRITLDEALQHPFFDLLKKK
Ribosomal protein S6 kinase alpha-2, sequence (Q15349 whole entry): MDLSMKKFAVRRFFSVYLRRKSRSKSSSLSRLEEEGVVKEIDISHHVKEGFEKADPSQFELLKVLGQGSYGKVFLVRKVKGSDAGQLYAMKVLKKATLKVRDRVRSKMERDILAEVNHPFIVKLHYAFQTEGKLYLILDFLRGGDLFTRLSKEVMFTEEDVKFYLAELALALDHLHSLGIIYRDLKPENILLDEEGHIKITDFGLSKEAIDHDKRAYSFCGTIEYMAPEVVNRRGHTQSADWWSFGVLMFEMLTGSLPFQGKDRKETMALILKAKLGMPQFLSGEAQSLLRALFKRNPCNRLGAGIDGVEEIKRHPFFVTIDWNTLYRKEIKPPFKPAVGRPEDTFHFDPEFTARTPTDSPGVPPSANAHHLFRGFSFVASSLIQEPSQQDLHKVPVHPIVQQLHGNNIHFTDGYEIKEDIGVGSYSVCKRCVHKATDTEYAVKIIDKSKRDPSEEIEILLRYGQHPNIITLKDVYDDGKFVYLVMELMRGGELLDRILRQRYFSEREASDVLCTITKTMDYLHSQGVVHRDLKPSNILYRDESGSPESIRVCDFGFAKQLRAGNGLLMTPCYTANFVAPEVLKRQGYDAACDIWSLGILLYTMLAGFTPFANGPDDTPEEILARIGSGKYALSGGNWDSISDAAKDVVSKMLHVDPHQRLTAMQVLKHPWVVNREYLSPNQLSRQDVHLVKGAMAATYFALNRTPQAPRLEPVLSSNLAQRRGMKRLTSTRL
Mitogen-activated protein kinase 1, sequence (P28482 whole entry): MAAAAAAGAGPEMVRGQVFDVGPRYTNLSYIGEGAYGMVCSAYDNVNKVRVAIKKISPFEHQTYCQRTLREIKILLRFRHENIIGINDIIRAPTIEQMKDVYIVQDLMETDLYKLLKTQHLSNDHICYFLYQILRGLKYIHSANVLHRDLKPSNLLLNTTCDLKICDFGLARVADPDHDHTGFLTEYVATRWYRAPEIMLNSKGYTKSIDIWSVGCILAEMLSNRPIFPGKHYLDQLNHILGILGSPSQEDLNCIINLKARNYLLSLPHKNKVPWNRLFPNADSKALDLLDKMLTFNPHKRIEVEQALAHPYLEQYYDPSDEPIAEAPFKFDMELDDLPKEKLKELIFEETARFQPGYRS
Cyclin-G-associated kinase, sequence (O14976 whole entry): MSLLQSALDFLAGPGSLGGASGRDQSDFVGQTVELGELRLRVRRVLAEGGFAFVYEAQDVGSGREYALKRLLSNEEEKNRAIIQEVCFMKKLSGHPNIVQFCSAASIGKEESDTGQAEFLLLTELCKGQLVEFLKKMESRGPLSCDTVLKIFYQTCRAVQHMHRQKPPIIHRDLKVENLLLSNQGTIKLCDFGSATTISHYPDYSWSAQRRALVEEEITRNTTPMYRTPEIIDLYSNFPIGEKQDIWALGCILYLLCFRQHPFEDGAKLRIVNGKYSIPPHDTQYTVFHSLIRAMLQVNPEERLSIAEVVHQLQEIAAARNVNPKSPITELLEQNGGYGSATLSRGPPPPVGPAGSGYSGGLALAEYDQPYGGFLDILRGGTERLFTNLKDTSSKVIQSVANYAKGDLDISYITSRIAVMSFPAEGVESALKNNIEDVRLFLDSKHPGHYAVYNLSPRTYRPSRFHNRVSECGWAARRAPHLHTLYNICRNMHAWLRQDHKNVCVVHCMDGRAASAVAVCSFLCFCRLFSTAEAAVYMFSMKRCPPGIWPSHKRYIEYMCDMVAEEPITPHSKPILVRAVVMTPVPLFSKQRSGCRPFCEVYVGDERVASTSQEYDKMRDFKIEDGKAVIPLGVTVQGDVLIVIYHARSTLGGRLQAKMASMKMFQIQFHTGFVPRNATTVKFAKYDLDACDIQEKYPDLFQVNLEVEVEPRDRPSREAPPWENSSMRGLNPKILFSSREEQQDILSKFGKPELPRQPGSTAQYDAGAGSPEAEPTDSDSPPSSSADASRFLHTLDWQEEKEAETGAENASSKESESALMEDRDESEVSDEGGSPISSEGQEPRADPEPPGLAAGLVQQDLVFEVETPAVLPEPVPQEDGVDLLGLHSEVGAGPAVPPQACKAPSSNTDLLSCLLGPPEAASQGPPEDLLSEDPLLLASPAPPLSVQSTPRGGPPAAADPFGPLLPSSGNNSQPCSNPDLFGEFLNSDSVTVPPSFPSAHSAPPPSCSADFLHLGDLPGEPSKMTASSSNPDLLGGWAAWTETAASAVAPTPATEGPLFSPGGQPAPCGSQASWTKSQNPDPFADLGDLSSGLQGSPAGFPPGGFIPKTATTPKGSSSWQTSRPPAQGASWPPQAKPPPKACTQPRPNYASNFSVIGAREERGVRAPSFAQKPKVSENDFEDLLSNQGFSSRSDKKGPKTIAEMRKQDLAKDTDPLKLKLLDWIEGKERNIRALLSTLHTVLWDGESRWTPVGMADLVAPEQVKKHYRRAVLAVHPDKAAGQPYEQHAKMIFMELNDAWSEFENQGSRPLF
Mitogen-activated protein kinase 9, sequence (P45984 whole entry): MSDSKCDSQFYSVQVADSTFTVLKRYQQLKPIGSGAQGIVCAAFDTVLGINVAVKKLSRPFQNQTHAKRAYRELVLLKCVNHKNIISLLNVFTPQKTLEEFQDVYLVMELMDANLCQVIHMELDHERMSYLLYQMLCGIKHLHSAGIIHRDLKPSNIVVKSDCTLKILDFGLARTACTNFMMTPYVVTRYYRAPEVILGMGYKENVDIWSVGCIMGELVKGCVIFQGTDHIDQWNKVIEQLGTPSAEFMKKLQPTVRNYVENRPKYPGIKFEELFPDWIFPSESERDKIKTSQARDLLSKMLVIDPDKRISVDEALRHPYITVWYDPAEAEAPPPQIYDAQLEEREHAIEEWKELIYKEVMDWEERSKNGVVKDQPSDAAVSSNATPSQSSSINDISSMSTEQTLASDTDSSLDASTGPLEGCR
Ephrin type-B receptor 4, sequence (P54760 whole entry): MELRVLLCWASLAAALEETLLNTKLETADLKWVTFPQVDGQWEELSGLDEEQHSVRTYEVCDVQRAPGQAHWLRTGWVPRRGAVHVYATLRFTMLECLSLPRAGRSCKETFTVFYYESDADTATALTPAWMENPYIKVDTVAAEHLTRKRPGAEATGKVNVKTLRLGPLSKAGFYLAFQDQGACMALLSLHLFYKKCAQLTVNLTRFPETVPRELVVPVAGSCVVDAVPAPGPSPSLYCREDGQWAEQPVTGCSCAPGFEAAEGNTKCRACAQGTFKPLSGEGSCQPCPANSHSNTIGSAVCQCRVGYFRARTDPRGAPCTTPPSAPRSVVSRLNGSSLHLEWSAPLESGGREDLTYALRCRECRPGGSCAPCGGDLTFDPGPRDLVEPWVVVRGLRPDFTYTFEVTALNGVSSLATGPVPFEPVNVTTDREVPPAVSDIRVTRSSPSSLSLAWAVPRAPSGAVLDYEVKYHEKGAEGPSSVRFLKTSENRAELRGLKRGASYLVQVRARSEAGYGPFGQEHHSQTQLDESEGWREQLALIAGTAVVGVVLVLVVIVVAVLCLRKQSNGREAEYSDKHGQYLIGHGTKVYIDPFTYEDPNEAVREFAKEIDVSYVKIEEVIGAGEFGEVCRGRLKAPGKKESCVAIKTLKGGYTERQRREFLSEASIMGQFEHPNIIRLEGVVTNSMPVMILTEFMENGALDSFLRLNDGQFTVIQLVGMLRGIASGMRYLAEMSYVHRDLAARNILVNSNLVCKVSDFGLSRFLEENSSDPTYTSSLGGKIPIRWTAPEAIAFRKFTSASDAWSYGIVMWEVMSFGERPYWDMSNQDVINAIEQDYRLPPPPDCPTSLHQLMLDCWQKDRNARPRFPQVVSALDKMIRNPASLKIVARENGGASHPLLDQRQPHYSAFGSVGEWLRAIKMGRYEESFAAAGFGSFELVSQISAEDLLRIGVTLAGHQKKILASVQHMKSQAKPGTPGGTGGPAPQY

Compound	inhibition [1] [%]	inhibition [2] [%]	inhibition [3] [%]	IC50 [4] [nM]	IC50 [5] [nM]	IC50 [6] [nM]	IC50 [7] [nM]	IC50 [8] [nM]	IC50 [9] [nM]	IC50 [10] [nM]	IC50 (Ephrin type-A receptor 1) [nM]	IC50 (Ephrin type-B receptor 4) [nM]	IC50 [11] [nM]	IC50 [12] [nM]	IC50 [13] [nM]	IC50 [14] [nM]	IC50 [15] [nM]	IC50 [16] [nM]	IC50 [17] [nM]	IC50 [18] [nM]	also measured
CN1C(=O)[C@@H](N2CCc3cn(Cc4ccccc4)nc3C2=O)COc2ccccc21 [TP-030-1]	4	3	5	1000	1000	1000	1000	1000	1000	1000	1000	1000	1000	1000	1000	1000	1000	1000	1000	1000	IC50 [19]: 1000 nM; IC50 [20]: 1000 nM; IC50 [21]: 1000 nM; IC50 [22]: 1000 nM; IC50 [23]: 1000 nM; IC50 [24]: 1000 nM; IC50 [25]: 1000 nM; IC50 [26]: 1000 nM; IC50 [27]: 1000 nM; IC50 [28]: 1000 nM; IC50 [29]: 1000 nM; IC50 [30]: 1000 nM; IC50 [31]: 1000 nM; IC50 (TGF-beta receptor type-1): 1000 nM; IC50 [32]: 1000 nM; IC50 [33]: 1000 nM; inhibition [34]: 8%; inhibition [35]: -6%
CN1C(=O)[C@@H](N2CCc3cn(CC4CCS(=O)(=O)CC4)nc3C2=O)COc2ccccc21 [TP-030n]	-3	3	-5	1000	1000	1000	1000	1000	1000	1000	1000	1000	1000	1000	1000	1000	1000	1000	1000	1000	IC50 [19]: 1000 nM; IC50 [20]: 1000 nM; IC50 [21]: 1000 nM; IC50 [22]: 1000 nM; IC50 [23]: 1000 nM; IC50 [24]: 1000 nM; IC50 [25]: 1000 nM; IC50 [26]: 1000 nM; IC50 [27]: 1000 nM; IC50 [28]: 1000 nM; IC50 [29]: 1000 nM; IC50 [30]: 1000 nM; IC50 [31]: 1000 nM; IC50 (TGF-beta receptor type-1): 1000 nM; IC50 [32]: 1000 nM; IC50 [33]: 1000 nM; inhibition [34]: 12%; inhibition [35]: 3%
